This passage reports IC50 results from patent US11590139B2, “Substituted aminopurine compounds, compositions thereof, and methods of treatment therewith” (Signal Pharmaceuticals, LLC, priority 2014, dated 2023).

Where two headings read alike, the source gives them in different places.

For the assay, the system named is Lox-IMVI melanoma cell line. As to the kind of experiment: Lox-IMVI anti-proliferative assay (growth inhibition, Cell Titer-Glo). Type of assay: cell-based, human. The settings on record: Homo sapiens. The procedure, abridged:
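RPMI/10% FBS; cmpd 0.5 nM–10 μM, 3-fold ×10, duplicate, 0.2% DMSO final; 72 h, 37 °C, 5% CO2. ATP-luminescence readout at t0 and 72 h. IC50 = 50% of DMSO control, 4-parameter logistic fit.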
(In ATP-based viability assays light output follows the ATP content of the culture.)

[1] abbreviates: IC50 activity level in the cell-based Lox-IMVI anti-proliferative assay, read-out: Activity.
The mark [2] stands for this setting: Lox-IMVI melanoma cell line, anti-proliferative assay, read-out: Activity (IC50 activity level).

Turning to `CS(=O)(=O)N1CCC(Nc2ncc3nc(Nc4c(Cl)cc(Cl)cc4Cl)n([C@H]4CC[C@@H](C(N)=O)CC4)c3n2)CC1` [Example 292, (1s,4s)-4-(2-(1-(methylsulfonyl)piperidin-4-ylamino)-8-(2,4,6-trichlorophenylamino)-9H-purin-9-yl)cyclohexanecarboxamide], the IC50 under setting [1] is 0.5 to 1 µM.
With `CS(=O)(=O)C1CC(Nc2ncc3nc(Nc4c(Cl)cc(C(F)(F)F)cc4Cl)n([C@H]4CC[C@@H](C(N)=O)CC4)c3n2)C1` (some centres unmarked) [Example 735, (1s,4s)-4-(8-(2,6-dichloro-4-(trifluoromethyl)phenylamino)-2-(3-(methylsulfonyl)cyclobutylamino)-9H-purin-9-yl)cyclohexanecarboxamide], the IC50 under setting [2] is > 1 µM.
Regarding `NC(=O)[C@H]1CC[C@@H](n2c(Nc3c(Cl)cc(Cl)cc3Cl)nc3cnc(NC4CCCC4)nc32)CC1` [Example 68, (1s,4s)-4-(2-(cyclopentylamino)-8-(2,4,6-trichlorophenylamino)-9H-purin-9-yl)cyclohexanecarboxamide], the IC50 under setting [1] was in the range of 0.5 to 1 µM.
Same read-out and setting: the figure for `NC(=O)[C@H]1CC[C@@H](n2c(Nc3c(F)ccc(Cl)c3F)nc3cnc(N[C@H]4CCC[C@@H](O)C4)nc32)CC1` [Example 377, (1R,4s)-4-(8-(3-chloro-2,6-difluorophenylamino)-2-((1S,3R)-3-hydroxycyclohexylamino)-9H-purin-9-yl)cyclohexanecarboxamide] is > 1 µM; for `NC(=O)[C@H]1CC[C@@H](n2c(Nc3c(Cl)cc(Cl)cc3Cl)nc3cnc(NC4CC5(COC5)C4)nc32)CC1` [Example 177, (1s,4s)-4-(2-(2-oxaspiro[3.3]heptan-6-ylamino)-8-(2,4,6-trichlorophenylamino)-9H-purin-9-yl)cyclohexanecarboxamide] it is 0.25 to 0.5 µM.
As for `N#Cc1cc(Cl)c(Nc2nc3cnc(N[C@@H]4CCC[C@@H](O)C4)nc3n2[C@H]2CC[C@@H](C(N)=O)CC2)c(Cl)c1` [Example 684, (1S,4s)-4-(8-(2,6-dichloro-4-cyanophenylamino)-2-((1R,3R)-3-hydroxycyclohexylamino)-9H-purin-9-yl)cyclohexanecarboxamide], the IC50 under setting [2] was in the range of 0.5 to 1 µM.
`NC(=O)[C@H]1CC[C@@H](n2c(Nc3c(F)cc(F)cc3Cl)nc3cnc(N[C@H]4CCOC4)nc32)CC1` [Example 241, (1R,4s)-4-(8-(2-chloro-4,6-difluorophenylamino)-2-((S)-tetrahydrofuran-3-ylamino)-9H-purin-9-yl)cyclohexanecarboxamide]: under setting [1], the IC50 is > 1 µM.
In the case of `CC(=O)N1CCC[C@@H](Nc2ncc3nc(Nc4c(Cl)cccc4Cl)n([C@H]4CC[C@@H](C(N)=O)CC4)c3n2)C1` [Example 800, (1S,4s)-4-(2-((R)-1-acetylpiperidin-3-ylamino)-8-(2,6-dichlorophenylamino)-9H-purin-9-yl)cyclohexanecarboxamide], the IC50 (Lox-IMVI anti-proliferative assay, cell-based, read-out: Activity (IC50 activity level)) is > 1 µM.
For `C[C@]1(C(N)=O)CC[C@@H](n2c(Nc3c(F)cc(Cl)cc3Cl)nc3cnc(N[C@@H]4CCC[C@H](O)C4)nc32)CC1` [Example 564, (1S,4s)-4-(8-(2,4-dichloro-6-fluorophenylamino)-2-((1R,3S)-3-hydroxycyclohexylamino)-9H-purin-9-yl)-1-methylcyclohexanecarboxamide], the IC50 (Lox-IMVI anti-proliferative assay, IC50 activity level, read-out: Activity) was < 0.25 µM.
As for `NC(=O)[C@H]1CC[C@@H](n2c(Nc3c(F)cccc3F)nc3cnc(NC4CCC(F)(F)CC4)nc32)CC1` [Example 289, (1s,4s)-4-(2-(4,4-difluorocyclohexylamino)-8-(2,6-difluorophenylamino)-9H-purin-9-yl)cyclohexanecarboxamide], under setting [1], the IC50 was > 1 µM.
In the case of `Cc1cc(Nc2nc3cnc(NC4CCOCC4)nc3n2[C@H]2CC[C@@H](C(N)=O)CC2)c(F)cc1Cl` [Example 71, (1s,4s)-4-(8-(4-chloro-2-fluoro-5-methylphenylamino)-2-(tetrahydro-2H-pyran-4-ylamino)-9H-purin-9-yl)cyclohexanecarboxamide], the IC50 under setting [1] was > 1 µM.
